A short description of data set [1]: Solubility in water. It is filed as physicochemical.
The test system of data set [2] is SW-872 cells. In words: Cell cycle distribution by flow cytometry, DAPI staining. In kind it is cell-based, human. The note with it: SW-872, IC25 concentration, 18 h. (In general: In flow cytometry, cells or beads pass a laser one at a time.)

“And” between values parts separate entries of the source, which are not always exact repeats. Equal values may be shown once. Read-outs that look alike come from different tables or passages of the source.

On to `O=S(=O)([O-])c1ccc(O)c(C=NNC(=S)Nc2cccc3ccccc23)c1.[Na+]` [L, sodium-4-hydroxy-3-((2-(naphthalene-1-ylcarbamothioyl)hydrazono)methyl)benzenesulfonate], for which the solubility in water in data set [1] was 4420 µg/mL and 4400 µg/mL; in data set [1] (listed as L^Cu), 1600 µg/mL; in data set [1] (listed as L^Fe), 2500 µg/mL; in data set [1] (listed as L^Mn), 3200 µg/mL; in data set [1] (listed as L^Ni), 1400 µg/mL; in data set [1] (listed as L^Zn), 2400 µg/mL. The “Cell cycle distribution, S” value in data set [2] stood at 32.94. In data set [2], the “effect on cell cycle” value was “cell cycle arrest in the S phase”.

For the origin of these results see PMC12852919 (Scientific Reports, 2025).
